How the values were obtained:
Type in all cases: in vivo
[1] = tested on: sedge, umbrella (small-flower umbrella sedge, Cyperus difformis); assay: Test B flooded paddy test, umbrella sedge; details: Flood, 250 g ai/ha, applied to paddy water, 2-leaf stage, visual evaluation after 13 to 15 d
Outline: (§1)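 Each response is a visual 0–100 rating made against untreated controls, where 0 is no effect and 100 is complete control; a dash marks no result. Compound was dosed into 3 cm paddy water over 2-leaf plants, assessed after 13 to 15 d.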

[2] = tested on: ragweed (common ragweed, Ambrosia elatior); assay: Test A postemergence, ragweed; details: 0 to 100 scale
Outline: (§2)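 Seeds sown in loam–sand blend received a directed soil spray of test chemical in non-phytotoxic solvent with surfactant (preemergence); postemergence plants at 2–10 cm, one- to two-leaf stage, were sprayed with the same formulation. Injury rated visually versus untreated controls after ~10 d in greenhouse, 0–100 scale.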

[3] = tested on: pigweed (Amaranthus retroflexus); assay: Test A preemergence, pigweed; details: 0 to 100 scale
Outline: as §2

[4] = tested on: foxtail, giant (Setaria faberii); assay: Test A preemergence, giant foxtail; details: 0 to 100 scale
Outline: as §2

[5] = tested on: pigweed (Amaranthus retroflexus); assay: Test A postemergence, pigweed; details: 0 to 100 scale
Outline: as §2

kochia (Kochia scoparia) [6] = assay: Test A postemergence, kochia; details: 0 to 100 scale
Outline: as §2

[7] = tested on: ragweed (common ragweed, Ambrosia elatior); assay: Test A preemergence, ragweed; details: 0 to 100 scale
Outline: as §2

[8] = tested on: ducksalad (Heteranthera limosa); assay: Test B flooded paddy test, ducksalad; details: Flood, 250 g ai/ha, applied to paddy water, 2-leaf stage, visual evaluation after 13 to 15 d
Outline: as §1

[9] = tested on: ryegrass, Italian (Lolium multiflorum); assay: Test A postemergence, Italian ryegrass; details: 0 to 100 scale
Outline: as §2

[10] = tested on: blackgrass (Alopecurus myosuroides); assay: Test A postemergence, blackgrass; details: 0 to 100 scale
Outline: as §2

rice (Oryza sativa) = assay: Test B flooded paddy test, rice; details: Flood, 250 g ai/ha, applied to paddy water, 2-leaf stage, visual evaluation after 13 to 15 d
Outline: as §1

kochia (Kochia scoparia) [11] = assay: Test A preemergence, kochia; details: 0 to 100 scale
Outline: as §2

[12] = tested on: ryegrass, Italian (Lolium multiflorum); assay: Test A preemergence, Italian ryegrass; details: 0 to 100 scale
Outline: as §2

[13] = tested on: barnyardgrass (Echinochloa crus-galli); assay: Test A preemergence, barnyardgrass; details: 0 to 100 scale
Outline: as §2

[14] = tested on: barnyardgrass (Echinochloa crus-galli); assay: Test B flooded paddy test, barnyardgrass; details: Flood, 250 g ai/ha, applied to paddy water, 2-leaf stage, visual evaluation after 13 to 15 d
Outline: as §1

[15] = tested on: barnyardgrass (Echinochloa crus-galli); assay: Test A postemergence, barnyardgrass; details: 0 to 100 scale
Outline: as §2

corn (Zea mays) = assay: Test A postemergence, corn; details: 0 to 100 scale
Outline: as §2

[16] = tested on: galium (catchweed bedstraw, Galium aparine); assay: Test A postemergence, galium; details: 0 to 100 scale
Outline: as §2

[17] = tested on: foxtail, giant (Setaria faberii); assay: Test A postemergence, giant foxtail; details: 0 to 100 scale
Outline: as §2

[18] = tested on: wheat (Triticum aestivum); assay: Test A postemergence, wheat; details: 0 to 100 scale
Outline: as §2

`Cc1cc(C)cc(OC[C@@H](C)Nc2ncc(C(F)(F)F)c(N)n2)c1` [Compound 25, N2-[(1R)-2-(3,5-dimethylphenoxy)-1-methylethyl]-5-(trifluoromethyl)-2,4-pyrimidinediamine] showed a pest or weed control at 250 g/ha ([1]; Cyperus difformis, 360 h, read-out: Plant response rating, Sedge, Umbrella (0 to 100 scale, 0 is no effect, 100 is complete control)) of 100%, a pest or weed control at 125 g/ha ([2]; Ambrosia artemisiifolia, post-emergence, 240 h, 125 g ai/ha, read-out: Plant response rating, Ragweed) of 60% and a pest or weed control at 500 g/ha ([2]; Ambrosia artemisiifolia, post-emergence, 240 h, 500 g ai/ha, read-out: Plant response rating, Ragweed) of 90%. The “Plant response rating, Pigweed” value ([3]; 125 g ai/ha) was 60, the “Plant response rating, Pigweed” value ([3]; 500 g ai/ha) was 100 and the “Plant response rating, Foxtail, Giant” value ([4]; 125 g ai/ha) was 50. The “Plant response rating, Foxtail, Giant” value ([4]; 500 g ai/ha) was 100, the pest or weed control at 125 g/ha ([5]; Amaranthus retroflexus, post-emergence, 240 h, 125 g ai/ha, read-out: Plant response rating, Pigweed) was 70% and the pest or weed control at 500 g/ha ([5]; Amaranthus retroflexus, post-emergence, 240 h, 500 g ai/ha, read-out: Plant response rating, Pigweed) was 90%. For the same compound, the pest or weed control at 125 g/ha (kochia (Kochia scoparia) [6]; Bassia scoparia, post-emergence, 240 h, 125 g ai/ha, read-out: Plant response rating, Kochia) was 60%, the pest or weed control at 500 g/ha (kochia (Kochia scoparia) [6]; Bassia scoparia, post-emergence, 240 h, 500 g ai/ha, read-out: Plant response rating, Kochia) was 80% and the “Plant response rating, Ragweed” value ([7]; 125 g ai/ha) was 80. The “Plant response rating, Ragweed” value ([7]; 500 g ai/ha) was 100, the pest or weed control at 250 g/ha ([8]; Heteranthera limosa, 360 h, read-out: Plant response rating, Ducksalad (0 to 100 scale, 0 is no effect, 100 is complete control)) was 0% and the pest or weed control at 125 g/ha ([9]; Lolium multiflorum, post-emergence, 240 h, 125 g ai/ha, read-out: Plant response rating, Ryegrass, Italian) was 0%. It also gave a pest or weed control at 500 g/ha ([9]; Lolium multiflorum, post-emergence, 240 h, 500 g ai/ha, read-out: Plant response rating, Ryegrass, Italian) of 20%, a pest or weed control at 125 g/ha ([10]; Alopecurus myosuroides, post-emergence, 240 h, 125 g ai/ha, read-out: Plant response rating, Blackgrass) of 0% and a pest or weed control at 500 g/ha ([10]; Alopecurus myosuroides, post-emergence, 240 h, 500 g ai/ha, read-out: Plant response rating, Blackgrass) of 70%. The plant injury at 250 g/ha (rice (Oryza sativa); Oryza sativa, 360 h, read-out: Plant response rating, Rice (0 to 100 scale, 0 is no effect, 100 is complete control)) was 0%, the “Plant response rating, Kochia” value (kochia (Kochia scoparia) [11]; 125 g ai/ha) was 20 and the “Plant response rating, Kochia” value (kochia (Kochia scoparia) [11]; 500 g ai/ha) was 90. For the same compound, the “Plant response rating, Ryegrass, Italian” value ([12]; 125 g ai/ha) was 20, the “Plant response rating, Ryegrass, Italian” value ([12]; 500 g ai/ha) was 70 and the “Plant response rating, Barnyardgrass” value ([13]; 125 g ai/ha) was 90. The “Plant response rating, Barnyardgrass” value ([13]; 500 g ai/ha) was 100, the pest or weed control at 250 g/ha ([14]; Echinochloa crus-galli, 360 h, read-out: Plant response rating, Barnyardgrass (0 to 100 scale, 0 is no effect, 100 is complete control)) was 0% and the pest or weed control at 125 g/ha ([15]; Echinochloa crus-galli, post-emergence, 240 h, 125 g ai/ha, read-out: Plant response rating, Barnyardgrass) was 50%. It also gave a pest or weed control at 500 g/ha ([15]; Echinochloa crus-galli, post-emergence, 240 h, 500 g ai/ha, read-out: Plant response rating, Barnyardgrass) of 90%, a Corn plant response rating (crop injury, 0 = no effect, 100 = complete kill) at 125 g/ha (corn (Zea mays); Zea mays, post-emergence, 240 h, 125 g ai/ha) of 20% and a Corn plant response rating (crop injury, 0 = no effect, 100 = complete kill) at 500 g/ha (corn (Zea mays); Zea mays, post-emergence, 240 h, 500 g ai/ha) of 60%. It also gave a pest or weed control at 125 g/ha ([16]; Galium, post-emergence, 240 h, 125 g ai/ha, read-out: Plant response rating, Galium) of 80%, a pest or weed control at 500 g/ha ([16]; Galium, post-emergence, 240 h, 500 g ai/ha, read-out: Plant response rating, Galium) of 90% and a pest or weed control at 125 g/ha ([17]; Setaria faberi, post-emergence, 240 h, 125 g ai/ha, read-out: Plant response rating, Foxtail, Giant) of 10%. It also gave a pest or weed control at 500 g/ha ([17]; Setaria faberi, post-emergence, 240 h, 500 g ai/ha, read-out: Plant response rating, Foxtail, Giant) of 80%, a plant injury at 125 g/ha ([18]; Triticum aestivum, post-emergence, 240 h, 125 g ai/ha, read-out: Plant response rating, Wheat) of 0% and a plant injury at 500 g/ha ([18]; Triticum aestivum, post-emergence, 240 h, 500 g ai/ha, read-out: Plant response rating, Wheat) of 30%.
`CCC(Nc1ncc(C#N)c(N)n1)c1cc2ccccc2o1` (racemic) [Compound 20] was tested, and the “Plant response rating, Sedge, Umbrella (0 to 100 scale, 0 is no effect, 100 is complete control)” value [1] was 0, the “Plant response rating, Ragweed” value ([2]; 125 g ai/ha) was 20 and the “Plant response rating, Ragweed” value ([2]; 500 g ai/ha) was 70. For the same compound, the “Plant response rating, Pigweed” value ([3]; 125 g ai/ha) was 50, the “Plant response rating, Pigweed” value ([3]; 500 g ai/ha) was 100 and the “Plant response rating, Foxtail, Giant” value ([4]; 125 g ai/ha) was 0. For the same compound, the “Plant response rating, Foxtail, Giant” value ([4]; 500 g ai/ha) was 80, the “Plant response rating, Pigweed” value ([5]; 125 g ai/ha) was 60 and the “Plant response rating, Pigweed” value ([5]; 500 g ai/ha) was 90. The “Plant response rating, Kochia” value (kochia (Kochia scoparia) [6]; 125 g ai/ha) was 50, the “Plant response rating, Kochia” value (kochia (Kochia scoparia) [6]; 500 g ai/ha) was 90 and the “Plant response rating, Ragweed” value ([7]; 125 g ai/ha) was 40. The “Plant response rating, Ragweed” value ([7]; 500 g ai/ha) was 60, the “Plant response rating, Ducksalad (0 to 100 scale, 0 is no effect, 100 is complete control)” value [8] was 0 and the “Plant response rating, Ryegrass, Italian” value ([9]; 125 g ai/ha) was 0. For the same compound, the “Plant response rating, Ryegrass, Italian” value ([9]; 500 g ai/ha) was 0, the “Plant response rating, Blackgrass” value ([10]; 125 g ai/ha) was 30 and the “Plant response rating, Blackgrass” value ([10]; 500 g ai/ha) was 100. For the same compound, the “Plant response rating, Rice (0 to 100 scale, 0 is no effect, 100 is complete control)” value (rice (Oryza sativa)) was 0, the “Plant response rating, Kochia” value (kochia (Kochia scoparia) [11]; 125 g ai/ha) was 0 and the “Plant response rating, Kochia” value (kochia (Kochia scoparia) [11]; 500 g ai/ha) was 30. For the same compound, the “Plant response rating, Ryegrass, Italian” value ([12]; 125 g ai/ha) was 30, the “Plant response rating, Ryegrass, Italian” value ([12]; 500 g ai/ha) was 90 and the “Plant response rating, Barnyardgrass” value ([13]; 125 g ai/ha) was 40. The “Plant response rating, Barnyardgrass” value ([13]; 500 g ai/ha) was 50, the “Plant response rating, Barnyardgrass (0 to 100 scale, 0 is no effect, 100 is complete control)” value [14] was 0 and the “Plant response rating, Barnyardgrass” value ([15]; 125 g ai/ha) was 0. The “Plant response rating, Barnyardgrass” value ([15]; 500 g ai/ha) was 40, the “Plant response rating, Corn” value (corn (Zea mays); 125 g ai/ha) was 0 and the “Plant response rating, Corn” value (corn (Zea mays); 500 g ai/ha) was 20. The “Plant response rating, Galium” value ([16]; 125 g ai/ha) was 30, the “Plant response rating, Galium” value ([16]; 500 g ai/ha) was 80 and the “Plant response rating, Foxtail, Giant” value ([17]; 125 g ai/ha) was 0. For the same compound, the “Plant response rating, Foxtail, Giant” value ([17]; 500 g ai/ha) was 10, the “Plant response rating, Wheat” value ([18]; 125 g ai/ha) was 0 and the “Plant response rating, Wheat” value ([18]; 500 g ai/ha) was 10.
